Values of other authors, collected in patent US5843942A, “Aromatic amino ethers as pain relieving agents” (Zeneca Limited, priority 1994, dated 1998).

Assays:
[1] = tested on: cat trachea
[2] = tested on: guinea pig ileum
[3] = tested on: dog fundus

CC(=O)NNC(=O)N1Cc2ccccc2Oc2ccc(Cl)cc21 [SC-19220]
block of the effect of PGE2 [1]: not on other tissues such as the cat trachea
block of the effect of PGE2 [2]: blocks the effect of PGE2
block of the effect of PGE2 [3]: blocks the effect of PGE2
